# Experimental data published in patent US10793864B2, “Methods and compositions for assessing viral nuclear localization” (GEORGE MASON UNIVERSITY, priority 2015, dated 2020).
# Entries after “also recorded” stand apart in the source; their conditions may differ.
# Assays:
# Type in all cases: cell-based
# HIV-1NL4-3 = experiment: HIV-1 replication measured by p24 release in CEM-SS T cells; settings: CEM-SS T cells pre-treated 1 hour, infected with HIV-1NL4-3
# Protocol: (§1) Briefly, CEM-SS T cells were pre-treated with DMSO or CK548 for 1 hour, and then infected with HIV-1NL4-3. Viral replication was measured by p24 release (see FIG. 5A). Drug cytotoxicity was meaured in CK548-treated and infected cells by PI staining and flow cytometry (see FIG. 5B). Shown is the percentage of PI-positive cells. […] Cells were infected for 2 hours, washed, and cultured in the presence of the drug for 48 hours. Total cellular DNA was extracted at 48 hours post infection and then PCR-amplified to quantify viral DNA (for results see FIG. 5C). Viral 2-LTR-circles were also measured (see FIG. 5D). The relative ratio of 2-LTR circles to viral total DNA was also plotted.
# CEM-SS T cells = experiment: Drug cytotoxicity by PI staining and flow cytometry; settings: CK548-treated and infected CEM-SS T cells; at 50 μM and below
# Protocol: as §1
# [1] = tested on: single-cycle HIV-1(Env) pseudotyped with HIV-1 gp160; experiment: Viral nuclear migration, 2-LTR circles measured after single-cycle HIV-1 infection; settings: CEM-SS T cells, 48 hours post infection
# Protocol: as §1
# (§2) The nuclear migration assay was performed in two CEM-SS-based cells, shArp-12 and shArp-13, which we recently constructed. In both shArp-12 and shArp-13, the actin branching factor Arp3 was stably knockdown (80% knockdown). […] We will re-measure the nuclear entry defect by BLNMA. […] We will also perform BLNMA to confirm the phenotype.
# [2] = tested on: single-cycle HIV-1(Env) pseudotyped with HIV-1 gp160; experiment: PCR quantification of viral DNA after single-cycle HIV-1 infection; settings: CEM-SS T cells, 48 hours post infection
# Protocol: as §1, §2
structure (smiles),measurement,setting,value
O=C1CSC(c2cccc(Br)c2)N1c1cc(Cl)ccc1O (stereo not shown) [CK548],HIV-1 infection (viral replication by p24 release),HIV-1NL4-3,inhibits HIV-1 infection
same,Drug cytotoxicity (percentage of PI-positive cells),CEM-SS T cells,No drug cytotoxicity was detectable
same,HIV nuclear migration (2-LTR circles),[1],inhibits HIV-1 infection and viral nuclear migration; also recorded: dramatically inhibited HIV nuclear migration
same,HIV DNA synthesis (viral total DNA by PCR),[2],stimulating HIV DNA synthesis
